This experiment has as its target T1, Csx1 (SisCsx1, SiCsx1) (Saccharolobus islandicus, UniProt F0NE21).
T1 sequence (F0NE21 1-454): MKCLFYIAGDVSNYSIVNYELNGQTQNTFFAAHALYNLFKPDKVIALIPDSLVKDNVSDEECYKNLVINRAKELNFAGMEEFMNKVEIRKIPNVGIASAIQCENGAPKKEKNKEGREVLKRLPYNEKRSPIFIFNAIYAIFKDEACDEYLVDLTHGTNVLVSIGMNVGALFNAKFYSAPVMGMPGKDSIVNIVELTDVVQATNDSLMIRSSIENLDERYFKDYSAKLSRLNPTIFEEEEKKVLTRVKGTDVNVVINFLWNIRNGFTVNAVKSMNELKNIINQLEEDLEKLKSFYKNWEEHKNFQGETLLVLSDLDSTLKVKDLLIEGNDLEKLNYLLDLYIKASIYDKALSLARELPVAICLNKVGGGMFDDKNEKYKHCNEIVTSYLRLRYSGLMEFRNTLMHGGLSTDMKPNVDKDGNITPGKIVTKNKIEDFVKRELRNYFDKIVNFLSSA
The experiment is described as follows: RNA. The format is biochemical.

EC50 data for one compound are collected here from PMC6212834 (Nucleic Acids Research, 2018).

pEC50: −log10 of the molar value.

Usually pEC50 stands for −log10 of the EC50, conventionally taken in molar units. For `Nc1ncnc2c1ncn2[C@@H]1O[C@@H]2COP(=O)(O)O[C@H]3[C@@H](O)[C@H](n4cnc5c(N)ncnc54)O[C@@H]3COP(=O)(O)O[C@H]3[C@@H](O)[C@H](n4cnc5c(N)ncnc54)O[C@@H]3COP(=O)(O)O[C@H]3[C@@H](O)[C@H](n4cnc5c(N)ncnc54)O[C@@H]3COP(=O)(O)O[C@H]2[C@H]1O` [c-A4], the pEC50 is 8.13.
